In brackets after ≈: the same amount, converted by molar mass.
Legend:
Format in all cases: functional
Escherichia coli = experiment: Antimicrobial activity against Escherichia coli
Pseudomonas aeruginosa = experiment: Antimicrobial activity against Pseudomonas aeruginosa
Staphylococcus aureus = experiment: Antimicrobial activity against Staphylococcus aureus

MIC (Escherichia coli): 1 µg/mL (≈ 2.78 µM)
MIC (Pseudomonas aeruginosa): 1 µg/mL (≈ 2.78 µM)
MIC (Staphylococcus aureus): 8 µg/mL (≈ 22.3 µM)
Compound: CCN1CCN(c2cc3c(cc2F)c(=O)c(C(=O)O)cn3C2CC2)CC1 [ENROFLOXACIN]

From ChEMBL document CHEMBL1139086, “Synthesis, characterization, antibacterial activity, and interaction with DNA of the vanadyl-enrofloxacin complex” (2007)
